Assay results from the supplement of paper PMC11061612.

Experiments:
Test in all cases: Bliss excess, mean over the matrix (fraction); higher = more synergy
A375 (Melanoma) = test system: A375 (Melanoma)
How it was run: (§1)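 Cell lines in DMEM/F12 or RPMI with 10% FBS were plated in 1536-well plates, held 24 hours at 37°C, 5% CO2, then given two-drug dose matrices for 72 hours (DMSO typically 0.2%). Viability was read by CellTiter-Glo 2.0 luminescence and scaled as inhibition from 0 (vehicle wells) to 1 (blank wells). Combination Emax is the second-highest inhibition in the matrix; Bliss excess is observed combination effect minus expected EA + EB − EA·EB, EA and EB being single-agent effects.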

[1] = test system: ATN-1 (T-Lymphoblastic Leukemia)
How it was run: as §1

[2] = test system: BC-1 (B-Cell Non-Hodgkin's Lymphoma)
How it was run: as §1

[3] = test system: Daudi (Burkitt's Lymphoma)
How it was run: as §1

GCIY (Gastric Carcinoma) = test system: GCIY (Gastric Carcinoma)
How it was run: as §1

HT-144 (Melanoma) = test system: HT-144 (Melanoma)
How it was run: as §1

[4] = test system: HT-3 (Cervical Carcinoma)
How it was run: as §1

[5] = test system: IGROV-1 (Ovarian Carcinoma)
How it was run: as §1

[6] = test system: JJN-3 (Plasma Cell Myeloma)
How it was run: as §1

[7] = test system: MDA-MB-175-VII (Breast Carcinoma)
How it was run: as §1

[8] = test system: NCI-H1048 (Small Cell Lung Carcinoma)
How it was run: as §1

[9] = test system: NCI-H2023 (Non-Small Cell Lung Carcinoma)
How it was run: as §1

NCI-H2452 (Mesothelioma) = test system: NCI-H2452 (Mesothelioma)
How it was run: as §1

[10] = test system: NCI-H835 (Other Solid Carcinomas)
How it was run: as §1

[11] = test system: NTERA-2-cl-D1 (Other Solid Carcinomas)
How it was run: as §1

[12] = test system: OCI-M1 (Acute Myeloid Leukemia)
How it was run: as §1

[13] = test system: RPMI-8402 (T-Lymphoblastic Leukemia)
How it was run: as §1

SK-N-DZ (Neuroblastoma) = test system: SK-N-DZ (Neuroblastoma)
How it was run: as §1

[14] = test system: SNU-1 (Gastric Carcinoma)
How it was run: as §1

[15] = test system: TOV-21G (Ovarian Carcinoma)
How it was run: as §1

Compound	Bliss excess (A375 (Melanoma))	Bliss excess [1]	Bliss excess [2]	Bliss excess [3]	Bliss excess (GCIY (Gastric Carcinoma))	Bliss excess (HT-144 (Melanoma))	Bliss excess [4]	Bliss excess [5]	Bliss excess [6]	Bliss excess [7]	Bliss excess [8]	Bliss excess [9]	Bliss excess (NCI-H2452 (Mesothelioma))	Bliss excess [10]	Bliss excess [11]	Bliss excess [12]	Bliss excess [13]	Bliss excess (SK-N-DZ (Neuroblastoma))	Bliss excess [14]	Bliss excess [15]
COc1cc2c(cc1OCCCCCOc1cc3c(cc1OC)C(=O)N1C=C(C)C[C@H]1C=N3)N=C[C@@H]1CC(C)=CN1C2=O [SG3199] + O=C(c1cc(Cc2n[nH]c(=O)c3ccccc23)ccc1F)N1CCN(C(=O)C2CC2)CC1 [Olaparib] (first compound max 0.001 µM, 7x7, partner max 10 µM)	-0.0304	-0.0249	-0.0102	-0.0273	-0.0152	-0.0443	-0.0306	-0.0101	0.0128	-0.0489	-0.0432	-0.0562	-0.117	-0.0406	-0.0586	-0.0065	-0.0259	-0.0199	0.0755	-0.0322
C[C@@H](c1ccc2nccn2c1)n1nnc2ncc(-c3cnn(C)c3)nc21 [Savolitinib] + Cc1c2c(nn1C)CSCc1cc(n(C)n1)CSc1cc(c3ccccc3c1)OCCCc1c(C(=O)O)n(C)c3c-2c(Cl)ccc13 [AZD5991] (first compound max 1 µM, 7x7, partner max 1 µM)	-0.0271	-0.0293	-0.0076	-0.0126	-0.0423	-0.054	-0.0255	-0.0303	-0.0384	-0.0244	0.0012	-0.0323	-0.109	-0.0267	-0.015	0.0026	-0.132	0.002	0.0005	-0.0111
C=CCn1c(=O)c2cnc(Nc3ccc(N4CCN(C)CC4)cc3)nc2n1-c1cccc(C(C)(C)O)n1 [AZD1775] + C1CN(CCC1(C(=O)N[C@@H](CCO)C2=CC=C(C=C2)Cl)N)C3=NC=NC4=C3C=CN4 [Capivasertib] (first compound max 3 µM, partner max 3 µM)	–	0.0364	0.0279	0.0313	-0.0277	0.0014	-0.0073	-0.0435	-0.0417	0.0171	-0.0301	-0.003	-0.116	-0.0572	–	0.0245	0.0084	-0.0116	0.0488	-0.0043
Cc1nc(Nc2ncc(C(=O)Nc3c(C)cccc3Cl)s2)cc(N2CCN(CCO)CC2)n1 [Dasatinib] + CC(=O)Nc1cccc(-n2c(=O)n(C3CC3)c(=O)c3c(Nc4ccc(I)cc4F)n(C)c(=O)c(C)c32)c1 [Trametinib] (first compound max 2 µM, 7x7, partner max 1 µM)	0.0736	-0.089	0.0858	-0.0221	0.052	-0.0825	-0.0594	-0.0554	0.0148	-0.132	-0.0669	-0.0228	-0.0671	-0.0662	0.0638	0.0346	0.0053	-0.0332	-0.0263	0.0199
CN(CCO)CC[C@H](CSc1ccccc1)Nc1ccc(S(=O)(=O)NC(=O)c2ccc(N3CCC([C@@H](O)c4ccccc4-c4ccc(Cl)cc4)CC3)cc2)cc1S(=O)(=O)C(F)(F)F [AZD4320] + Nc1ccn([C@@H]2O[C@H](CO)[C@@H](O)C2(F)F)c(=O)n1 [Gemcitabine] (first compound max 1 µM, 7x7, partner max 0.3 µM)	0.0047	–	-0.0074	–	-0.0151	–	–	–	–	0.125	–	0.0338	-0.0035	0.0682	-0.0239	–	-0.0457	–	–	–
Cc1cc2ncnn2cc1Nc1ncc2c(n1)n(C1CCOCC1)c(=O)n2C [AZD7648] + COc1cc([C@@H]2c3cc4c(cc3[C@@H](O[C@@H]3O[C@@H]5CO[C@@H](C)O[C@H]5[C@H](O)[C@H]3O)[C@H]3COC(=O)[C@H]23)OCO4)cc(OC)c1O [Etoposide] (first compound max 10 µM, 7x7, partner max 10 µM)	0.119	–	0.0896	–	0.125	–	–	–	–	0.0478	–	0.0401	0.0449	0.024	0.137	–	0.0847	–	–	–
C[C@@H](c1ccc2nccn2c1)n1nnc2ncc(-c3cnn(C)c3)nc21 [Savolitinib] + CC1(C)CCC(CN2CCN(c3ccc(C(=O)NS(=O)(=O)c4ccc(NCC5CCOCC5)c([N+](=O)[O-])c4)c(Oc4cnc5[nH]ccc5c4)c3)CC2)=C(c2ccc(Cl)cc2)C1 [Venetoclax] (first compound max 1 µM, 7x7, partner max 1 µM)	-0.0463	-0.0192	0.0031	-0.0988	-0.0732	-0.0569	-0.0486	-0.04	-0.012	-0.013	-0.0419	-0.0161	-0.0714	-0.0355	-0.0678	-0.0215	-0.0218	-0.0158	-0.0821	-0.0577
Cc1cc2ncnn2cc1Nc1ncc2c(n1)n(C1CCOCC1)c(=O)n2C [AZD7648] + CCN(CCO)CCCOc1ccc2c(Nc3cc(CC(=O)Nc4cccc(F)c4)[nH]n3)ncnc2c1 [AZD2811] (first compound max 10 µM, 7x7, partner max 1 µM)	0.0251	-0.0768	0.035	0.0652	0.0949	0.0088	0.0276	-0.115	0.0202	-0.0042	-0.0197	-0.0238	0.001	0.0595	0.012	0.0449	-0.0443	0.088	0.0214	0.0183
